# Data reported in patent publication US10882835B2 (Imago Biosciences, Inc., priority 2013, dated 2021).
# How the values were obtained:
# KDM1A (LSD1) = KDM1A (LSD1) (Homo sapiens (Human), UniProt O60341); experiment: 10-dose IC50 fluorescence coupling enzyme assay, LSD1 demethylase activity on histone H3(1-21)K4me2 peptide (HRP/Amplex Red); assay type: biochemical; conditions: 10 μM histone H3(1-21)K4me2 peptide substrate
# [1] = Metabolic stability in murine liver microsomes; assay type: in vitro ADME; conditions: mouse liver microsomes, 2 μM compound, NADPH
# Description: The metabolic stability of compounds disclosed herein in pooled human liver microsomes (HLM) and pooled male mouse liver microsomes (MMLM) was determined according to the following protocol, in which the concentrations of compounds in reaction systems were evaluated by LC/MS/MS for estimating the stability in liver microsomes.
# Pooled human liver microsomes (HMMCPL; PL050B) and pooled male mouse liver microsomes (MSMCPL; MS033) were purchased from CellzDirect (Invitrogen). Microsomes were stored at −80 C prior to use.
# A master solution was prepared containing microsome (stock concentration 5 mg/mL, volume 50 μL, final concentration 0.5 mg/mL), MgCl2 solution (stock concentration 50 mM, volume 50 μL, final concentration 5 mM), phosphate buffer (stock concentration 200 mM, volume 250 μL, final concentration 100 mM), and water (volume […]. Five μL of 200 μM test compounds or control solution (control compound: verapamil) was then added. The final concentration of test compounds or verapamil in the reaction system was 2 μM. The mixture was pre-warmed at 37 C for 5 min.
# The reaction was started with the addition of 50 μL of 10 mM NADPH solution at the final concentration of 1 mM and carried out at 37 C. 50 μL of ultra-pure H2O was used instead of NADPH solution in the negative control.
# Aliquots of 50 μL were taken from the reaction solution at 0 and 30 min. The reaction was stopped by the addition of 3 volumes of cold methanol with IS (200 nM imipramine, 200 nM labetalol and 2 μM ketoprofen) at the designated time points. Samples were centrifuged at 16,000 g for 10 minutes to precipitate protein. Aliquot of 100 μL of the supernatant was diluted by 100 μL ultra-pure H2O, and the mixture was used for LC/MS/MS analysis. All experiments were performed in duplicate.
# Samples were analyzed using liquid chromatography-mass spectrometry. The LC system comprised a Shimadzu liquid chromatograph separation system equipped with degasser DGU-20A3, solvent delivery unit LC-20AD, system controller CBM-20A, column oven CTO-10ASVP and CTC Analytics HTC PAL System. Chromatographic conditions included a Phenomenex column, 5.0μ C18 (2.0×50 mm); a mobile phase of 0.1% formic acid in acetonitrile and 0.1% formic acid in water; an elution rate of 500 μL/min; column temperature 25 C; injection volume 10 μL. Mass spectrometric analysis was performed using an API 4000 instrument from AB Inc. (Canada) with an ESI interface. The data acquisition and control system were created using Analyst 1.5.1 software from ABI Inc. A turbo spray ion source and electrospray ionization were employed in a multiple reaction monitoring (MRM) scan. Additional parameters included: collision gas, 6 L/min; curtain gas, 30 L/min; nebulize gas, 50 L/min; auxiliary gas, 50 L/min; temperature, 500 C; ionspray voltage, +5500 v (positive MRM). Quadripoles Q1 and Q3 were set to 456.2 and 200.2, respectively; declustering potential (DP), entrance potential (EP), and collision cell entrance potential (CE) were set to 120, 10, and 55 v, respectively; collision cell exit potential (CXP) was 12 v.
# All calculations were carried out using Microsoft Excel. Peak areas were determined from extracted ion chromatograms. The control compounds were included in the assay. Any value of the compounds that was not within the specified limits was rejected and the experiment was repeated. The reaction system without the cofactors was used to exclude the misleading factor that resulted from instability of chemical itself.
Compound,IC50 (KDM1A (LSD1)) [µM],"% at 30 min, MLM [1]","% at 30 min, MLM ([1]; numeric values of Table 2) [%]"
"O=C(N[C@@H](CS(=O)(=O)CCN[C@@H]1C[C@H]1c1ccc(F)cc1)C(=O)N1CCOCC1)c1ccc(F)cc1 [Example 19, 4-fluoro-N—((R)-3-((2-(((1R,2S)-2-(4-fluorophenyl)cyclopropyl)amino)ethyl)sulfonyl)-1-morpholino-1-oxopropan-2-yl)benzamide]",< 1,− (− is <20%),2.3
"CN1CCN(C(=O)[C@H](CCCCN[C@@H]2C[C@H]2c2ccc(F)cc2)NC(=O)c2ccccc2)CC1 [Example 12, N—((S)-6-(((1R,2S)-2-(4-fluorophenyl)cyclopropyl)amino)-1-(4-methylpiperazin-1-yl)-1-oxohexan-2-yl)benzamide]",< 1,+ (+ is ≥20%),–
"CN1CCN(C(=O)[C@H](CCCCN[C@@H]2C[C@H]2c2ccc(F)cc2)NC(=O)c2ccc(F)cc2)CC1 [Example 3, 4-fluoro-N—((S)-6-(((1R,2S)-2-(4-fluorophenyl)cyclopropyl)amino)-1-(4-methylpiperazin-1-yl)-1-oxohexan-2-yl)benzamide]",< 1,+ (+ is ≥20%),–
"O=C(N[C@@H](CCCCN[C@@H]1C[C@H]1c1ccc(F)cc1)C(=O)N1CCCCC1)c1ccccc1 [Example 10, N—((S)-6-(((1R,2S)-2-(4-fluorophenyl)cyclopropyl)amino)-1-oxo-1-(piperidin-1-yl)hexan-2-yl)benzamide]",< 1,− (− is <20%),–
